Drawing on the CheMixHub ionic liquid set, this text covers viscosity and electrical conductivity for two molecules.

± gives the uncertainty stated by the source.

This data set in a line: xn = mol fraction of the nth substance listed. Particulars: 101 kPa.

With `CCCCCCCCn1cc[n+](C)c1.O=S(=O)([N-]S(=O)(=O)C(F)(F)F)C(F)(F)F` + c1ccccc1, the viscosity (commonly the internal friction of a fluid under shear) by setting is: (293 K, x1 = 0.2) 7.34 mPa·s; (293 K, x1 = 0.6) 46.2 mPa·s.

Under “298.15 K, x2 = 0”, `CCCC[n+]1ccn(C)c1.F[B-](F)(F)F` + c1ccncc1 registered an electrical conductivity of 0.194 ± 0.023 S/m and a viscosity of 116 ± 40 mPa·s.
